Test [1] concerns the target cAMP-dependent protein kinase catalytic subunit beta (Homo sapiens) (UniProt P22694). The experiment in a line: Inhibition of PKAC beta (unknown origin) at 1 uM by Ambit Kinomescan binding assay relative to control.
Test [2] concerns the target MAP/microtubule affinity-regulating kinase 3 (Homo sapiens) (UniProt P27448). The experiment in a line: Inhibition of MARK3 (unknown origin) at 10 uM by Ambit Kinomescan binding assay.
The nature of test [3]: Inhibition of NEK6/7 K2 labeling site harbouring DIKPANVFITATGVVK in human Huh-7 cells at 1 uM by KiNativ Profiling analysis relative to control. The conditions noted are these: condition cancer.
Test [4] deals with Dual specificity protein kinase CLK3 (Homo sapiens) (UniProt P49761). The test can be described thus: Inhibition of CLK3 (unknown origin) at 10 uM by Ambit Kinomescan binding assay.
The target of test [5] is Bone morphogenetic protein receptor type-1B (Homo sapiens) (UniProt O00238). The experiment in a line: Inhibition of BMPR1B (unknown origin) at 10 uM by Ambit Kinomescan binding assay.
For test [6], the target named is STE20-like serine/threonine-protein kinase (Homo sapiens) (UniProt Q9H2G2). The experiment in a line: Inhibition of SLK Lys1 labeling site in human A-375 cells at 5 uM by KiNativ Profiling analysis relative to control. It counts as cell-based.
Chain of STE20-like serine/threonine-protein kinase (Homo sapiens) (Q9H2G2 whole entry, looked up): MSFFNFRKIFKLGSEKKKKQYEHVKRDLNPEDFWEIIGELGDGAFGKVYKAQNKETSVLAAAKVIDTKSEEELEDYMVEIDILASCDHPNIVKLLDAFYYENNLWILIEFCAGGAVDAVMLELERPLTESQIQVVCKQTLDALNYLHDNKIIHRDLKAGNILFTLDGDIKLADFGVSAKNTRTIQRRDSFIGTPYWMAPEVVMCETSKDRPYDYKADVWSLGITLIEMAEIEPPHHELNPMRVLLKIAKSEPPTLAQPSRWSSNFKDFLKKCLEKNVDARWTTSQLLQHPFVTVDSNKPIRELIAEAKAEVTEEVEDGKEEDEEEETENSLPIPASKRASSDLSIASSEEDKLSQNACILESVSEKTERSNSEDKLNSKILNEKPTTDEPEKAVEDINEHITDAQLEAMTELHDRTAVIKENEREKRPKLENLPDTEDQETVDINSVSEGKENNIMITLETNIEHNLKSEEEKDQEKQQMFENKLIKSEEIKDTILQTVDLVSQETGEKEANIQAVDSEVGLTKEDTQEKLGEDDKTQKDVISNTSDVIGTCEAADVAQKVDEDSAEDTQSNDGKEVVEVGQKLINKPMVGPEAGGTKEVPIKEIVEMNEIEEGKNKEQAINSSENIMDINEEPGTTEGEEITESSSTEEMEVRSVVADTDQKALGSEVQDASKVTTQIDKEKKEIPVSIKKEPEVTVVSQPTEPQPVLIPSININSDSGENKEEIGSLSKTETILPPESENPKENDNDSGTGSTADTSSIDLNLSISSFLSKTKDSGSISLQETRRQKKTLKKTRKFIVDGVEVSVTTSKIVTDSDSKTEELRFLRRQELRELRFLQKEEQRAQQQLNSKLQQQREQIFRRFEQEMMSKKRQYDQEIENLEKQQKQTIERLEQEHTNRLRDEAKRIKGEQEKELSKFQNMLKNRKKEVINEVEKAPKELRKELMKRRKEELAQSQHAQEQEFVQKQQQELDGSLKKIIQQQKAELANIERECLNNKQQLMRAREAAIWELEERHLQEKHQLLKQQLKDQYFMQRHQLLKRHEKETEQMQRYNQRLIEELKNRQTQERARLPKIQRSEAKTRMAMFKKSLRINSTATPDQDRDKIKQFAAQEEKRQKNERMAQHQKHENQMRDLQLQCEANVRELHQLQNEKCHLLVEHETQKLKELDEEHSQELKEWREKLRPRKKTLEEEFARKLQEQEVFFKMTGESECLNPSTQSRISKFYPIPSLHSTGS
The target of test [7] is T1, Serine/threonine-protein kinase Nek1 (Homo sapiens) (UniProt Q96PY6).
T1 sequence (whole entry): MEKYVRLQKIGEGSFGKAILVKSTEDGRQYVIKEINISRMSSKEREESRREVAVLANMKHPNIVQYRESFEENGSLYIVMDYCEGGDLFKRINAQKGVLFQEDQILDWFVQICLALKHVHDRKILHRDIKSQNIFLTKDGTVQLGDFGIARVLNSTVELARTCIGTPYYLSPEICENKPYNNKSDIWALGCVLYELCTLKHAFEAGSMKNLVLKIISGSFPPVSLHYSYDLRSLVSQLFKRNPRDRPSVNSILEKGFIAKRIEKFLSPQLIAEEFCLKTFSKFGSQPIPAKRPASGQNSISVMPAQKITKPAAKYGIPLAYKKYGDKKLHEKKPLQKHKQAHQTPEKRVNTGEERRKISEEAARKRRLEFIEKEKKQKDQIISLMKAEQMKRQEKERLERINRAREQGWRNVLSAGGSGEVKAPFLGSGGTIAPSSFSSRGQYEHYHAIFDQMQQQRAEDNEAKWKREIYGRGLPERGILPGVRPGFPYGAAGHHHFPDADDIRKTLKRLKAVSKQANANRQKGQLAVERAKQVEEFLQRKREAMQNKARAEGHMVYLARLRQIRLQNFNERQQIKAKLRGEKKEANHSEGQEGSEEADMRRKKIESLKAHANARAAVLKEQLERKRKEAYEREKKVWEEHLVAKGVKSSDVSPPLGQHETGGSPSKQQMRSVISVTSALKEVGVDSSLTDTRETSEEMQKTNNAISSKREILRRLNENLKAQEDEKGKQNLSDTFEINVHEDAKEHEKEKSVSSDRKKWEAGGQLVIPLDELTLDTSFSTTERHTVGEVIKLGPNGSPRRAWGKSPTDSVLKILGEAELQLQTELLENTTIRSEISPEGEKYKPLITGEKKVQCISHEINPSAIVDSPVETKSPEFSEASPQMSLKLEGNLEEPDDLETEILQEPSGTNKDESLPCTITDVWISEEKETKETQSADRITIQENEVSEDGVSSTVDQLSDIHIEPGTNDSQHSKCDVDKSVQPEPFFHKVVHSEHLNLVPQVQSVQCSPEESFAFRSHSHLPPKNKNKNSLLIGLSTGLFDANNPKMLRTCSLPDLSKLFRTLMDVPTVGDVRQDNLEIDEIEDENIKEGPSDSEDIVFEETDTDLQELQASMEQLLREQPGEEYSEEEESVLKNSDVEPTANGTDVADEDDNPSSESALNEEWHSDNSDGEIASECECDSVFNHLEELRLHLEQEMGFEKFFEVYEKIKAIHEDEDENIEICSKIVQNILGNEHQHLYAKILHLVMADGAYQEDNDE
The test can be described thus: Inhibition of NEK1 (unknown origin) at 10 uM by Ambit Kinomescan binding assay.

For test [8], the target named is Non-receptor tyrosine-protein kinase TYK2 (Homo sapiens) (UniProt P29597). The experiment in a line: Inhibition of TYK2 JH1 catalytic domain (unknown origin) at 10 uM by Ambit Kinomescan binding assay relative to control; values are per cent of control.
Test [9] deals with Cyclin-dependent kinase 13 (Homo sapiens) (UniProt Q14004). The test can be described thus: Inhibition of CHED Lys2 labeling site harbouring DIKCSNILLNNR in human Huh-7 cells at 1 uM by KiNativ Profiling analysis relative to control. It counts as cell-based.
Chain of Cyclin-dependent kinase 13 (Homo sapiens) (Q14004 whole entry, looked up): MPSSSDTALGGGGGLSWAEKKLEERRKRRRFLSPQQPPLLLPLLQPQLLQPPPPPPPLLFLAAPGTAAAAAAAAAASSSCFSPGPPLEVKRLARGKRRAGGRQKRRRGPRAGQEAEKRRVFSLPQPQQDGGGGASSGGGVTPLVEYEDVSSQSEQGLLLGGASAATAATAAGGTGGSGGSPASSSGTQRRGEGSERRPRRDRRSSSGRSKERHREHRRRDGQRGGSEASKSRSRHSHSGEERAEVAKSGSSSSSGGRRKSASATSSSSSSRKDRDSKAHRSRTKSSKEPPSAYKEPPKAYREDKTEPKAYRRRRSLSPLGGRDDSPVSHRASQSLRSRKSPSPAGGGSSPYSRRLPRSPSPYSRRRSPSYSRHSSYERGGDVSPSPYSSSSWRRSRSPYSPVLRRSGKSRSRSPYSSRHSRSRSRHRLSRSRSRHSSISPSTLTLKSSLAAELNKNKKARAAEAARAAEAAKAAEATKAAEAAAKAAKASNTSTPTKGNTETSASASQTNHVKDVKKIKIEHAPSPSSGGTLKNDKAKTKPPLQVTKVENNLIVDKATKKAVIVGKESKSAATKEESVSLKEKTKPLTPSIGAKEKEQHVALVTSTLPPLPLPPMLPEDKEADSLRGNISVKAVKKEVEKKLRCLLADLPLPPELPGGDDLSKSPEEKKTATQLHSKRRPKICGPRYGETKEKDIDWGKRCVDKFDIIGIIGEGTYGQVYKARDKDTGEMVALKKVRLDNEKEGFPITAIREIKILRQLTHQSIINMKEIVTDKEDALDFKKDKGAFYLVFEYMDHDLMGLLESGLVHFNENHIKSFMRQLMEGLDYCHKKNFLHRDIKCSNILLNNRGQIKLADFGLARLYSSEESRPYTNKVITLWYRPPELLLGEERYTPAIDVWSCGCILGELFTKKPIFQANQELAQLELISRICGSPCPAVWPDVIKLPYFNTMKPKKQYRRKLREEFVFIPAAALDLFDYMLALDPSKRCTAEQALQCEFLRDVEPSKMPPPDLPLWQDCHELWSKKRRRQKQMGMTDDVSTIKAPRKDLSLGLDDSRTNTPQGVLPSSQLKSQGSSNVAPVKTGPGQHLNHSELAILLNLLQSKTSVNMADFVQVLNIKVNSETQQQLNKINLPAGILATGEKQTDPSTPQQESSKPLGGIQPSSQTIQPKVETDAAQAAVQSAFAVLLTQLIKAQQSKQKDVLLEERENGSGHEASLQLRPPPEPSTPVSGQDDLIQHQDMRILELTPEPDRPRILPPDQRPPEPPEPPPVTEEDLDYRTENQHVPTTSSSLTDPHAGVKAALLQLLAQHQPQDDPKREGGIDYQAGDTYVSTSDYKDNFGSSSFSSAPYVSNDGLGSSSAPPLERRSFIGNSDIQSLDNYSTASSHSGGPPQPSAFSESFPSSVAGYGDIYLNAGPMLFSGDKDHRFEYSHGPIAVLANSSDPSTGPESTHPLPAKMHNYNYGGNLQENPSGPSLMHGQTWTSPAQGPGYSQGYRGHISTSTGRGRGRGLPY
Test [10] addresses Calcium/calmodulin-dependent protein kinase type II subunit delta (Homo sapiens) (UniProt Q13557). The test can be described thus: Inhibition of CaMK2d Lys1 labeling site harbouring IPTGQEYAAKIINTKK in human Huh-7 cells at 1 uM by KiNativ Profiling analysis relative to control. It counts as cell-based.
Test [11] addresses Ribosomal protein S6 kinase alpha-1 (Homo sapiens) (UniProt Q15418). The test can be described thus: Inhibition of RSK1 domain 1 ACT labeling site in human Huh-7 cell lysate at 1 uM by KiNativ Profiling analysis relative to control. It counts as subcellular.
Test [12] addresses T2, Mitogen-activated protein kinase 12 (Homo sapiens) (UniProt P53778).
T2 sequence (whole entry): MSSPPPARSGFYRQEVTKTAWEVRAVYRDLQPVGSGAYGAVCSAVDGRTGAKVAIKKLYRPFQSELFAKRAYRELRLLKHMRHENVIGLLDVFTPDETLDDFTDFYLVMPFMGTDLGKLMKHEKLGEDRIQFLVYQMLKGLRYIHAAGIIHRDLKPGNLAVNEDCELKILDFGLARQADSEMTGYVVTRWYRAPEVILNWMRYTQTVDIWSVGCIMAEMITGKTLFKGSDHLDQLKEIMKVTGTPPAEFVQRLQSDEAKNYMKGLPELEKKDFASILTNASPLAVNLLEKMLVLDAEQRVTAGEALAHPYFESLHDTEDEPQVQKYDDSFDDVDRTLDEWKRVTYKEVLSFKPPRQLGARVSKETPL
The experiment in a line: Inhibition of p38gamma Lys2 labeling site in human Huh-7 cells at 1 uM by KiNativ Profiling analysis relative to control. It counts as cell-based.

Active and inactive are the calls of the source. No cut-off for these calls is given here.

What is called inhibition is the relative decrease from the control value, in per cent. As a reminder, the residual activity is what remains of the control signal, in per cent. Higher therefore signals a small loss of activity.

Chain of Calcium/calmodulin-dependent protein kinase type II subunit delta (Homo sapiens) (Q13557 whole entry, the tested form may be a part): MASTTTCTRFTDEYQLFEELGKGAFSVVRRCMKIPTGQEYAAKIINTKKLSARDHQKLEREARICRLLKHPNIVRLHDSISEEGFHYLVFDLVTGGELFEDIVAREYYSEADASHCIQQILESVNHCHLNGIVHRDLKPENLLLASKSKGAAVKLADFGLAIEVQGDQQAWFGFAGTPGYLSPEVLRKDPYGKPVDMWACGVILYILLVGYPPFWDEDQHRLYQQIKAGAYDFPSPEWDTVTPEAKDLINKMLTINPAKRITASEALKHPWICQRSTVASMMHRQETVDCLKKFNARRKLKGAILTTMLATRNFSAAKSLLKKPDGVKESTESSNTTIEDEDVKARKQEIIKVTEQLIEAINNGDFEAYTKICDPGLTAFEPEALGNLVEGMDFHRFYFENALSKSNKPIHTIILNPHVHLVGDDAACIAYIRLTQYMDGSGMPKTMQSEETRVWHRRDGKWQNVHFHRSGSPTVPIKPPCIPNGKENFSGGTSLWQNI
Chain of MAP/microtubule affinity-regulating kinase 3 (Homo sapiens) (P27448 whole entry, looked up): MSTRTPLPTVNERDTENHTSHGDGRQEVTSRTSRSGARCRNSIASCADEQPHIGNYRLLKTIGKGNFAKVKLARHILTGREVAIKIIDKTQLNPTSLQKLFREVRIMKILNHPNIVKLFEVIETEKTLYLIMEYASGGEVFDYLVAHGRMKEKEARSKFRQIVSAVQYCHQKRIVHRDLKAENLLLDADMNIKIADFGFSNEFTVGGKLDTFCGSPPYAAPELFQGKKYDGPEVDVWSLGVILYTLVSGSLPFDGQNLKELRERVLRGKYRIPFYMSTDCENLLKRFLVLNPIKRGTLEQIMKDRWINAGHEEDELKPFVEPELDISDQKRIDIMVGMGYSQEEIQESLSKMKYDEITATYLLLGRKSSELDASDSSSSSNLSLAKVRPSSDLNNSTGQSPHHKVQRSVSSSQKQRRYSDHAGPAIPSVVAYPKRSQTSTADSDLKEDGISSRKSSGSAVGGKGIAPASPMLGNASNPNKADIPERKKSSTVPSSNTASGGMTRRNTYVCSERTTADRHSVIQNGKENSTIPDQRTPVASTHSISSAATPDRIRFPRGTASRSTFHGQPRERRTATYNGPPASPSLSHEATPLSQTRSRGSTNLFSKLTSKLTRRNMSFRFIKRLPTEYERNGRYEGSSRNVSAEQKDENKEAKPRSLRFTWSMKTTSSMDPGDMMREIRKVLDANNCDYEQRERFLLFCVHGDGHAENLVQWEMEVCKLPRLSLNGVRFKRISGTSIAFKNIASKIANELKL
Chain of Ribosomal protein S6 kinase alpha-1 (Homo sapiens) (Q15418 whole entry, the tested form may be a part): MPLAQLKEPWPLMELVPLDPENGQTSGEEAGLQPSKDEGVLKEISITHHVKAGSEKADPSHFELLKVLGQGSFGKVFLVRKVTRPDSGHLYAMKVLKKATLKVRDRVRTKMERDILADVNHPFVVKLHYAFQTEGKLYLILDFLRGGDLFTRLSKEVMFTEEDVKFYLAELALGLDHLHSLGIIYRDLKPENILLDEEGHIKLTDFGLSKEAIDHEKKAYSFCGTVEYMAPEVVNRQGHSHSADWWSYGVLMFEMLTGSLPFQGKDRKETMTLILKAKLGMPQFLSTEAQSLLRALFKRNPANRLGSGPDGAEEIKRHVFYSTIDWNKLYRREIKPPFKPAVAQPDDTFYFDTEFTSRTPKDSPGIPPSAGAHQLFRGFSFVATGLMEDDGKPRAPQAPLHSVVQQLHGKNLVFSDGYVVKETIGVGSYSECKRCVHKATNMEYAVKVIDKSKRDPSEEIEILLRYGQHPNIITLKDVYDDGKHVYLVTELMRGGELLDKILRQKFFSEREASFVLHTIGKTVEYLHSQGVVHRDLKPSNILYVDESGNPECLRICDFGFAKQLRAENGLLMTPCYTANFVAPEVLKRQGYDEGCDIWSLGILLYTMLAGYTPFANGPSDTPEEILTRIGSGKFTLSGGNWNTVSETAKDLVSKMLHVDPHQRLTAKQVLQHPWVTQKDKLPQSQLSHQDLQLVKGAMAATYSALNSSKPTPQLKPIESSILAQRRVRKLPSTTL

Consider `CCN1CCN(Cc2ccc(NC(=O)c3ccc(C)c(/C=C/c4cnc5[nH]ccc5c4OC)c3)cc2C(F)(F)F)CC1`, for which the inhibition in [1] is 76%.
As to `CCN1CCN(Cc2ccc(NC(=O)c3ccc(C)c(Oc4ccnc5[nH]ccc45)c3)cc2C(F)(F)F)CC1`, the inhibition entry in test [2], in test [4], in test [5] and in [7] was “inactive” throughout. In addition, the inhibition at 1 µM in test [3] is -13.1%. In addition, the inhibition in test [6] was 34.6%. In test [8], this molecule showed a residual activity of 0%.
For `CNc1cc(Oc2cc(C(=O)Nc3cc(N4CCN(C)CC4)cc(C(F)(F)F)c3)ccc2C)ncn1`, the inhibition in test [9] came out at 38.1%; in test [10], 11.6%; in [11] it was 9.3%; in test [12], 13%.

Values taken from ChEMBL document CHEMBL5696442, “Discovery of type II inhibitors of TGFβ-activated kinase 1 (TAK1) and mitogen-activated protein kinase kinase kinase kinase 2 (MAP4K2)” (J Med Chem, 2015).
